Assays:
[1] = system: bacterial organisms present in patient urine sample; assay: Antibiotic Resistance (ABR) assay utilizing agar-containing medium; format: cell-based
Method: Urine samples suitable for processing with this assay are collected, transported, and stored using BD Vacutainer (gray top) tubes or other suitable leak-proof sterile container. Urine samples may be held at room temperature for 48 hours before test results are compromised.
Antibiotic stocks are stored at 2-8° C. and protected from direct sunlight. Prepared antibiotic stock solutions were aliquoted into a 96-deep well plate (Thermo Fisher Scientific) to form an Antibiotic Source Plate, as shown in FIG. 11 and identified by antibiotic name and concentration (μg/mL; 10× final concentration). […] One well was designated AB-blend which contained a combination of antibiotics to ensure there was no bacterial growth.
One hundred microliters of Mueller-Hinton agar medium was aliquoted into each appropriate well position of a 96-well microplate (VIS 96/F-PS, Eppendorf). The medium was allowed to solidify at room temperature for at least 10 min.
The antibiotics (10 μL) at various concentrations were then aliquoted into desired wells from the Antibiotic Source Plate. After the antibiotics were introduced to the agar medium, the ABR microplates were allowed to sit for at least 1 hr before use. If long-term storage is required, ABR microplates containing antibiotic-infuse agar are stored at 2-8° C. in the dark.
At the time of testing, urine samples were diluted 1:20 in sterile saline and vortexed. Each patient sample utilized a single ABR microplate. Five microliters of diluted patient sample were added to each well of the room temperature microplate, the plate was sealed and incubated for 16-18 hr at 37° C.
After incubation, the plate was removed from the incubator and carefully uncovered. Two-hundred microliters of deionized water were added to each well to suspend cells present above the agar and the plates incubated at room temperature for 30 min. After 30 min, 100 μl from each well was removed to a new plate and the OD600 was determined in a spectrophotometer. Five separate reads were taken of each plate and a mean OD600 measurement calculated.
Controls include: No-antibiotic control, Negative control plate, and AB-Blend. No antibiotic control: Any well containing medium that is not infused with antibiotics to ensure viability of bacterial cells present in patient urine samples and included in each plate. […] Negative control plate: Microplate containing antibiotic-infused agar medium without addition of patient sample or cultured bacterial organisms to ensure non-contamination of reagents. AB-Blend: One or more wells containing a combination of antibiotics to ensure there is no bacterial growth.
The raw data was then “blanked” using the measurement obtained from the AB-Blend well, as depicted in Table 5.
(§1) To determine whether bacterial organisms present in the patient samples were resistant or sensitive to a particular antibiotic at a certain concentration, blanked OD readings were compared to a threshold OD600 of 0.025 (Table 6). Any OD measurement greater than or equal to this threshold was designated Resistant (R) meaning bacterial organisms present in patient sample were resistant to that particular antibiotic at that certain concentration. Any OD measurement less than this threshold was designated Sensitive (S) meaning bacterial organisms present in patient sample were sensitive to that particular antibiotic at that certain concentration.

[2] = system: bacterial organisms present in patient urine sample; assay: Antibiotic Resistance (ABR) assay utilizing liquid growth medium; format: cell-based; settings: liquid medium
Method: Urine samples suitable for processing with this assay are collected, transported, and stored using BD Vacutainer tubes or other suitable leak-proof sterile containers. Urine samples may be held at room temperature for 48 hours before test results are compromised.
Antibiotic stocks are stored at 2-8° C. and protected from direct sunlight. Prepared antibiotic stock solutions were aliquoted into a 96-deep well plate (ThermoFisher Scientific) to form a 50× Antibiotic Source Plate and then diluted 1:5 to form a 10× Antibiotic Source Plate, as shown in FIG. 12 where each well is identified by antibiotic name and concentration (μg/mL; 10× final concentration). […] One well was assigned sodium azide to ensure no bacterial growth would be observed in that well.
Twenty microliters of each antibiotic solution were aliquoted into the pre-determined wells of a 96-well microplate (VIS 96/F-PS, Eppendorf) from the 10× Antibiotic Source Plate to create ABR testing plates for inoculation. These ABR testing plates were allowed to sit for up to 24 hours before use at 2-8° C. in the dark.
At the time of testing, urine samples were centrifuged to concentrate any bacterial cells and then mixed with liquid Mueller-Hinton medium and incubated for 6-16 hours at 37° C. After this initial incubation, the sample is diluted to 0.5-0.6 McF in saline and then 500 μl of that suspension was added to […] of Mueller-Hinton medium. One-hundred and eighty microliters of the diluted sample is then aliquoted to each well of the ABR microplate already containing 10× antibiotic solution, bringing all of the antibiotics to the desired final concentration. The plate is then sealed and incubated for 12-16 hours at 37° C.
After incubation, the plate was removed from the incubator and carefully uncovered and the OD600 was determined for each appropriate well by spectrophotometer. Five separate measurements were taken of each well on a plate and the mean OD600 measurement calculated for each well.
Controls are depicted in Table 10.
The raw data was then “blanked” using the measurement obtained from the Na-Azide well, as depicted in Table 14.
as §1, with “0.065” for “0.025”, “15). An” for “6). Any”

SMILES	Blanked (OD600 minus AB-Blend well) ([1]; antibiotic 4 μg/mL)	Mean (OD600) ([1]; antibiotic 4 μg/mL)	Blanked (OD600 minus AB-Blend well) ([1]; antibiotic 8 μg/mL)	Mean (OD600) ([1]; antibiotic 8 μg/mL)	Blanked (OD600 minus Na-Azide well) ([2]; antibiotic 2 μg/mL)	Mean (OD600) ([2]; antibiotic 2 μg/mL)	Blanked (OD600 minus Na-Azide well) ([2]; antibiotic 4 μg/mL)	Mean (OD600) ([2]; antibiotic 4 μg/mL)	Blanked (OD600 minus Na-Azide well) ([2]; antibiotic 8 μg/mL)	Mean (OD600) ([2]; antibiotic 8 μg/mL)	also measured
O=C1CN(/N=C/c2ccc([N+](=O)[O-])o2)C(=O)N1 [Nitrofurantoin, nitrofurantoin]											Blanked (OD600 minus AB-Blend well) ([1]; antibiotic 32 μg/mL): 0.0003; Mean (OD600) ([1]; antibiotic 32 μg/mL): 0.0387; Blanked (OD600 minus AB-Blend well) ([1]; antibiotic 64 μg/mL): 0.0002; Mean (OD600) ([1]; antibiotic 64 μg/mL): 0.0386; Blanked (OD600 minus Na-Azide well) ([2]; antibiotic 32 μg/mL): 0.0095; Mean (OD600) ([2]; antibiotic 32 μg/mL): 0.0552
CN(C)[C@@H]1C(O)=C(C(N)=O)C(=O)[C@@]2(O)C(O)=C3C(=O)c4c(O)cccc4[C@@](C)(O)[C@H]3C[C@@H]12 [tetracycline]	0.3920	0.4304	0.4012	0.4396	0.1627	0.2084	0.1767	0.2224	0.1139	0.1596	Blanked (OD600 minus AB-Blend well) ([1]; antibiotic 16 μg/mL): 0.4166; Mean (OD600) ([1]; antibiotic 16 μg/mL): 0.4550; Blanked (OD600 minus Na-Azide well) ([2]; antibiotic 16 μg/mL): 0.0082; Mean (OD600) ([2]; antibiotic 16 μg/mL): 0.0539
C[C@H]1COc2c(N3CCN(C)CC3)c(F)cc3c(=O)c(C(=O)O)cn1c23 [Levofloxacin, levofloxacin]	0.0360	0.0744	0.0028	0.0412	−0.0021	0.0436	−0.0026	0.0431	−0.0014	0.0443	Blanked (OD600 minus AB-Blend well) ([1]; antibiotic 1 μg/mL): 0.0024; Mean (OD600) ([1]; antibiotic 1 μg/mL): 0.0408; Blanked (OD600 minus AB-Blend well) ([1]; antibiotic 2 μg/mL): 0.0017; Mean (OD600) ([1]; antibiotic 2 μg/mL): 0.0401; Blanked (OD600 minus Na-Azide well) ([2]; antibiotic 1 μg/mL): 0.0723; Mean (OD600) ([2]; antibiotic 1 μg/mL): 0.1180

From US20210301315A1, “METHODS FOR TREATING POLYMICROBIAL INFECTIONS” (priority 2017, published 2021)
